Measured values: PMC8040252, “1,2,4-Oxadiazole-Bearing Pyrazoles as Metabolically Stable Modulators of Store-Operated Calcium Entry” (ACS Medicinal Chemistry Letters, 2021)
Marks after values point to notes of the source that are not given here.

Tests used:
[1] = test system: Store-operated calcium entry (SOCE); test: SOCE in HEK cells, tBhQ store depletion and Ca2+ re-addition, Fura-2 calcium imaging; format: cell-based, human; details: Homo sapiens; for activity at 10 µM: HEK293, compound 10 μM, tBhQ 50 μM, vs control, mean ± SEM of three experiments, read-out: % SOCE residual activity (10 μM); for IC50: HEK293, mean ± SEM
Method: With this approach, 24 oxadiazole-bearing pyrazoles were synthesized and tested in human embryonic kidney (HEK) cells for SOCE inhibition. […] After 600 s, Ca^2+ was added and intracellular levels were measured in fluorescence microscopy with the calcium dye Fura-2. […] For these compounds, the cell viability was therefore evaluated. An MTT assay was performed and the compounds that affected cell viability by more than 25% at 10 μM were discarded (23, 31, and 33). […] According to both activity and cytotoxicity, for the selected five compounds, the representative traces are depicted in Figure 3.
Human embryonic kidney (Hek) cells were obtained from ATCC (Rockville, MD, USA) and were cultured in Dulbecco’s Modified Eagle’s Medium (DMEM; Sigma-Aldrich, Italy), supplemented with 10% heat-inactivated FBS (Gibco, Italy), L-glutamine […] (Sigma-Aldrich, Italy), 10 U/mL penicillin, and […] streptomycin (Sigma-Aldrich, Italy) at 37 °C, under a 5% CO2 humidified atmosphere. […]
(KRB, 135 mM NaCl, 5 mM KCl, 0.4 mM KH2PO4, 1 mM MgSO4, 5.5 mM glucose, 20mM HEPES, pH 7.4) containing 2 mM CaCl2 (30 min, room temperature). After which, cells were washed and incubated with KRB for other 30 min to allow de-esterification of […]. To measure SOCE, cells were depleted of calcium in the endoplasmic reticulum with 2,5-t-butylhydroquinone (tBhQ, 50 […]
For calcium imaging experiments, Hek cells were plated onto pre-treated poli-L-lysine (P4832, Sigma-Aldrich, Italy) glass coverslips of 24 mm in 6-well plates Cells were loaded with 5 µM of Fura-2 AM, 0.02% of Pluronic-127 (Life technologies, Italy) and 10 µM of sulfinpyrazone (Sigma-Aldrich, Italy) in KRB containing 2 mM CaCl2 for 30 min at RT. Cells were then washed once with KRB for 15 min for de-esterification of Fura-2 AM.
Coverslips were mounted into the acquisition chamber and placed on the stage of a Leica DMI6000 epifluorescent microscope equipped with S Fluor ×40/1.3 objective. Fura-2 AM was excited by alternate 340 and 380 nm using a Polychrome IV monochromator (Till Photonics, Germany), and the probe emission light was filtered through 520/20 bandpass filter and collected by a cooled CCD camera (Hamamatsu, Japan). The fluorescence signals were acquired and processed using MetaFluor software (Molecular Device, Sunnyvale, CA, USA). To quantify the differences in the amplitudes of Ca2+ transients, the ratio values were normalized using the formula ΔF/F0. […]
In calcium imaging experiments, data are presented as Mean +/- standard error (SEM) or Median and interquartile range (IQR). The normality of data distributions was assessed using the Shapiro−Wilk test. Nonparametric (Mann−Whitney U test and one-way) statistical analysis was used for comparisons of data. All statistical assessments were two-sided and a value of P <0.05 was considered statistically significant. Statistical analyses were performed using GraphPad Prism software (GraphPad Software, Inc., USA).

[2] = MTT cell viability assay in HEK cells; format: cell-based, human; details: human; for viability at 24 h, 10 µM: mean ± SEM; for cytotoxicity at 24 h, 10 µM: compounds discarded, read-out: cell viability affected by
Method: (§1) With this approach, 24 oxadiazole-bearing pyrazoles were synthesized and tested in human embryonic kidney (HEK) cells for SOCE inhibition. To this aim, intracellular Ca^2+ stores of HEK cells were emptied with t-butylhydroquinone (tBhQ, 50 μM) in the presence of the compounds at 10 μM concentration. After 600 s, Ca^2+ was added and intracellular levels were measured in fluorescence microscopy with the calcium dye Fura-2. […] For these compounds, the cell viability was therefore evaluated. An MTT assay was performed and the compounds that affected cell viability by more than 25% at 10 μM were discarded (23, 31, and 33). […] According to both activity and cytotoxicity, for the selected five compounds, the representative traces are depicted in Figure 3. […]
(§2) 3-(4,5-Dimethylthiazol-2-yl)-2,5-diphenyltetrazolium bromide (MTT) assay Hek cells were plated in 24-wells plate at 20.000 cells per well. After 24 h, cells were treated for other 24 h with the selected compounds. At the end of treatments, medium was removed and substituted by 300 µL of MTT reagent at the final concentration of 0.25 mg/mL for 60 min at 37 °C. Reactions were then stopped and the crystals were solubilized by adding isopropyl alcohol/HCl (1:1; vol:vol) (Sigma-Aldrich Inc., Italy), before reading the absorbance at 570 nm, using the multi-plate reader Victor 3V (PerkinElmer, Milan, Italy). […]
(§3) All statistical assessments were two-sided and a value of P <0.05 was considered statistically significant. Statistical analyses were performed using GraphPad Prism software (GraphPad Software, Inc., USA).

[3] = In vitro hepatic metabolic stability in MLS9 fraction with NADPH; format: in vitro ADME, mouse; details: after 1 h of incubation
Method: The five selected inhibitors (22, 27, 29, 32, and 42) and the identified SOCE enhancer (37) were then evaluated for their in vitro hepatic metabolic stability. To this aim, the candidates were incubated in MLS9 fraction supplied with NADPH and the residual substrate was measured after 1 h. Under these conditions, the oxadiazole-bearing pyrazoles resulted overall metabolically stable, with only two compounds affording a residual substrate lower than 80% and the remaining molecules higher than 90% after incubation (Table 1 and Supporting Information). In contrast, Pyr3 and CIC-37, which suffered from hydrolysis of the ester function, provided a residual substrate of 43 and 74%, respectively (Table 1).[35] Similarly, the residual substrate of Synta66 in MLM is of 15%, due to an important hydrolysis of the amide group, absent in our class (Table 1).[39]
In vitro metabolism and purity of lead compounds
In vitro metabolism studies
Mouse liver S9 (MLS9) (pooled male mouse CD-1, protein concentration: 20 mg/mL) were purchased from Corning B.V. Life Sciences (Amsterdam, The Netherlands) and used throughout this study. The standard incubation mixture (250 μL final volume) was carried out in a 50 mM TRIS (tris[hydroxymethyl]-aminomethane) + 150 mM KCl buffer (pH 7.4) containing 3.3 mM MgCl2, 1.3 mM β-NADP-Na 2, 3.3 mM glucose 6-phosphate, 0.4 Units/mL glucose 6-phosphate dehydrogenase (NADPH regenerating system), 5 μL of acetonitrile ([…]), and the substrate compounds at a concentration of 50 µM. After pre-equilibration of the mixture, an appropriate volume of MLS9 suspension was added to give a final protein concentration of 1.5 mg/mL. The mixture was shaken for 60 min at 37 °C. Each incubation was stopped by addition of 250 μL of ice-cold acetonitrile, vortexed, and centrifuged at 13000 rpm for 10 min. Control incubations were carried out without the presence of MLS9 suspension or cofactors or in absence of the substrate.
LC-UV method for purity and metabolic stability data determination: a Shimadzu HPLC system (Shimadzu, Kyoto, Japan), consisting of two LC-10AD Vp module pumps, an SLC-10A Vp system controller, an SIL-10AD Vp autosampler, and a DGU-14-A on-line degasser were used for the analysis. The SPD-M10Avp photodiode array detector was used to detect the analytes. LC-Solution 1.24 software was used to process the chromatograms.
• Column: Phenomenex Kinetex XB C18, 150 × 4.6 mm (5 µm d.p.) protected with a SecurityGuard® (Torrance, CA, USA).
A: 0.2% formic acid in water;
B: 0.2% formic acid in acetonitrile.

[4] = test system: HEK cells; test: MTT cell viability assay in HEK cells; format: cell-based, human; details: 10 μM
Method: as §1, §2, §3

IC50 [1]	Compound	activity at 10 µM [1]	viability at 24 h, 10 µM [2]	also measured
4.4 ± 1.2 µM	CCCC(C)OC(=O)c1cnn(-c2ccc(-n3cc(-c4cccc(C(=O)O)c4)nn3)cc2)c1C(F)(F)F (centres unmarked) [CIC-37, reference compound]	17.5 ± 1.6%	93.6 ± 4.6%	–
0.5 ± 0.1 µM	CCOC(=O)c1cnn(-c2ccc(NC(=O)C(Cl)=C(Cl)Cl)cc2)c1C(F)(F)F [Pyr3, reference compound]	8.9 ± 0.6%	28.6 ± 0.5%	–
0.2 ± 0.3 µM	COc1ccc(OC)c(-c2ccc(NC(=O)c3ccncc3F)cc2)c1 [Synta66, reference compound]	9.2 ± 1.7%	75.8 ± 8%	–
–	Cc1noc(-c2cnn(-c3ccc(NC(=O)c4cccc(C(=O)O)c4)cc3)c2C(F)(F)F)n1 [compound 19]	77.2 ± 3.7%	–	–
–	Cc1noc(-c2cnn(-c3ccc(NC(=O)c4ccncc4F)cc3)c2C(F)(F)F)n1 [compound 20]	53.6 ± 0.9%	–	–
–	Cc1noc(-c2cnn(-c3ccc(NC(=O)c4c(C)cccc4F)cc3)c2C(F)(F)F)n1 [compound 21]	56.7 ± 1.3%	–	–
3.1 ± 1.4 µM	Cc1noc(-c2cnn(-c3ccc(NC(=O)c4c(F)cccc4F)cc3)c2C(F)(F)F)n1 [compound 22]	38.6 ± 4.3%	95.6 ± 8.5%	MLS9 stability (residual substrate) [3]: >99% ^b; cytotoxicity [4]: not cytotoxic
–	Cc1noc(-c2cnn(-c3ccc(NC(=O)c4ccc(Cl)cc4)cc3)c2C(F)(F)F)n1 [compound 23]	40.8 ± 3.6%	72.9 ± 11.7%	cytotoxicity at 24 h, 10 µM [2]: > 25%
–	Cc1noc(-c2cnn(-c3ccc(NC(=O)Cc4ccc(Cl)cc4)cc3)c2C(F)(F)F)n1 [compound 24]	121 ± 2.2%	–	–
–	Cc1noc(-c2cnn(-c3ccc(NC(=O)c4ccc(C(F)(F)F)cc4)cc3)c2C(F)(F)F)n1 [compound 25]	110 ± 5.9%	–	–
–	Cc1noc(-c2cnn(-c3ccc(NC(=O)c4ccc(C(O)(C(F)(F)F)C(F)(F)F)cc4)cc3)c2C(F)(F)F)n1 [compound 26]	109 ± 6.5%	–	–
5.5 ± 0.8 µM	Cc1noc(-c2cnn(-c3ccc(NC(=O)c4ccc([N+](=O)[O-])cc4)cc3)c2C(F)(F)F)n1 [compound 27]	40.8 ± 6.9%	80.2 ± 7.4%	MLS9 stability (residual substrate) [3]: >99% ^b; cytotoxicity [4]: not cytotoxic
–	Cc1noc(-c2cnn(-c3ccc(NC(=O)Cc4ccc([N+](=O)[O-])cc4)cc3)c2C(F)(F)F)n1 [compound 28]	108 ± 3.9%	–	–
9.7 ± 2.3 µM	Cc1noc(-c2cnn(-c3ccc(NC(=O)c4ccc(C#N)c(F)c4)cc3)c2C(F)(F)F)n1 [compound 29]	49.6 ± 6.5%	101 ± 6.7%	MLS9 stability (residual substrate) [3]: 73% ^b; cytotoxicity [4]: not cytotoxic
–	Cc1noc(-c2cnn(-c3ccc(NC(=O)c4ccccc4I)cc3)c2C(F)(F)F)n1 [compound 30]	53.2 ± 3.9%	–	–
–	Cc1noc(-c2cnn(-c3ccc(NC(=O)c4ccc5nc[nH]c5c4)cc3)c2C(F)(F)F)n1 [compound 31]	47.4 ± 1%	56.5 ± 2.5%	cytotoxicity at 24 h, 10 µM [2]: > 25%
9.6 ± 2.5 µM	Cc1noc(-c2cnn(-c3ccc(NC(=O)c4c(C)noc4C)cc3)c2C(F)(F)F)n1 [compound 32]	33.2 ± 1.9%	77.7 ± 4.4%	MLS9 stability (residual substrate) [3]: 99% ^b; cytotoxicity [4]: not cytotoxic
–	Cc1noc(-c2cnn(-c3ccc(NC(=O)c4snnc4C)cc3)c2C(F)(F)F)n1 [compound 33]	46.5 ± 2.8%	59.1 ± 6.3%	cytotoxicity at 24 h, 10 µM [2]: > 25%
–	Cc1noc(-c2cnn(-c3ccc(NC(=O)c4cc(Br)c[nH]4)cc3)c2C(F)(F)F)n1 [compound 35]	69.8 ± 2.9%	–	melting point: 205 to 206 °C
–	COc1ccccc1NS(=O)(=O)c1cc(C(=O)Nc2ccc(-n3ncc(-c4nc(C)no4)c3C(F)(F)F)cc2)ccc1C [compound 36]	59.9 ± 4.2%	–	–
–	CCCCCCCCCCCC(=O)Nc1ccc(-n2ncc(-c3nc(C)no3)c2C(F)(F)F)cc1 [compound 38]	53.8 ± 4.4%	–	–
–	Cc1noc(-c2cnn(-c3ccc(NC(=O)CCN4CCOCC4)cc3)c2C(F)(F)F)n1 [compound 39]	95.9 ± 6.2%	–	–
–	Cc1noc(-c2cnn(-c3ccc(NC(=O)C4CCS(=O)(=O)CC4)cc3)c2C(F)(F)F)n1 [compound 40]	87.5 ± 3.8%	–	–
–	Cc1noc(-c2cnn(-c3ccc(NC(=O)COc4ccccc4)cc3)c2C(F)(F)F)n1 [compound 41]	63.6 ± 3.9%	–	–
9.5 ± 1.7 µM	Cc1ccc(S(=O)(=O)Nc2ccc(-n3ncc(-c4nc(C)no4)c3C(F)(F)F)cc2)cc1 [compound 42]	47.6 ± 4.2%	79.4 ± 4.2%	MLS9 stability (residual substrate) [3]: 76% ^b; cytotoxicity [4]: not cytotoxic; melting point: 149 to 150 °C
